Laboratory results from US20240358862A1, “Synthesis Method and Application of a Near-infrared Probe GGa-ICG specific binding to PSCA” (Guangzhou Shiyun Biotechnology Co., Ltd, priority 2022, published 2024).

What was measured:
[1] = Fluorescence stability detection; type: physicochemical; settings: after excitation at 780 nm
Experimental: Stability testing was divided into two groups: 1) stability testing under excitation wavelength and 2) stability testing of GGa-ICG under visible light. Excitation wavelength of 780 nm (GGa-ICG, ssDNA-ICG, and ICG) and visible light were used to excite the fluorescence probe GGa-ICG. Fluorescence detection was performed, and the changes in fluorescence intensity were recorded using a fluorescence spectrophotometer.

[2] = system: prostate cancer lesions (PC-3 xenograft); assay: In vivo imaging in PC-3 mouse xenograft model; set-up: species or system BALB/c nude mice; settings: intravenous injection, at 2, 4, and 8 hours
Experimental: Male BALB/c nude mice (BALB/c-nude) were purchased from Beijing SLAC Laboratory Animal Co., Ltd. Five-week-old nude mice were subcutaneously injected with 5×10^6 PC-3 cells on the back. The tumor was allowed to grow for 15 to 20 days until it reached a diameter of 0.5-1.5 cm. The BALB/c nude mice bearing tumors were anesthetized with sedatives and anesthetics. Once the mice were immobilized, a designated dose (0.1 mg, 0.5 mg, 1 mg, 2 mg per injection) of GGa-ICG or ssDNA-ICG was injected through the tail vein. At certain time points, fluorescent images of live mice were collected using the IVIS Lumina II in vivo imaging system. For ex vivo fluorescent experiments, tumor-bearing mice that were intravenously injected with GGa-ICG or ssDNA-ICG were euthanized by cervical dislocation 1 hour after injection under anesthesia. After dissection, organs including brain, liver, kidney, spleen, lung, heart, and tumor tissue were imaged using the IVIS Lumina II in vivo imaging system as described above.

CC1(C)C(/C=C/C=C/C=C/C=C2\N(CCCCS(=O)(=O)O)c3ccc4ccccc4c3C2(C)C)=[N+](CCCCS(=O)(=O)[O-])c2ccc3ccccc3c21 [ICG, indocyanine green, reference compound]
time after which fluorescence was extinguished [1]: 1 h
binding to prostate cancer lesions in vivo [2]: specifically bound
